Consider 120 compounds from a melting point compilation (Tetko et al.).

Usually melting point stands for the temperature of the solid-liquid transition.

SMILES strings stand for the structures.

The compound `O=C(O)c1nn(-c2ccc(F)cc2F)cc1O` displayed a melting point of 203 to 205 °C.
For the compound `COc1ccc(C(=O)N2CCOCC2)cc1N`, the melting point was 150 to 152 °C.
`NC(=O)NC(CC(=O)O)c1ccc(Cl)cc1` (stereo not given) yielded a melting point of 198 to 200 °C.
The result for `O=C(O)C1CC2CCC1O2` (stereo not given) reads 44 to 46 °C; that for `Nc1nc(C2CC2)c(Cc2ccccc2F)s1`, 114 to 116 °C; that for `Nc1ccn(Cc2cccc3cccnc23)n1`, 120 to 122 °C.
The value for `CC(=O)c1ccc(OCC(=O)N2CCOCC2)cc1` was 55 to 59 °C; that for `Cc1ccccc1-c1cc(N)n(CCO)n1` was 128 to 130 °C; that for `COc1ccc(Br)c(C(=O)O)c1N` was 139 to 141 °C.
`CC(C)CNC(=O)N1CCCC(C(=O)O)C1` (stereo not given) had a melting point of 106 to 108 °C.
With `CCC(C)(C)NC(=O)C(Br)C(C)C` (stereo not given), the melting point was in the range of 132 to 134 °C.
The result for `NC(CN1CCCC1=O)c1cccc(C(F)(F)F)c1` (stereo not given) reads 76 to 78 °C; that for `CC(C)n1cnnc1S`, 116 to 118 °C; that for `O=C(O)c1cc(S(=O)(=O)N2CCOCC2)ccc1O`, 234 to 236 °C.
For the compound `Cn1cnc2cc(Br)ccc2c1=O`, the melting point was in the range of 156 to 158 °C.
As to `CCOc1ccc2ncc(C#N)c(Cl)c2c1`, the melting point is 125 to 127 °C.
`COc1cc(C(=O)O)ccc1OCC(=O)N1CCOCC1` displayed a melting point of 162 to 164 °C.
`O=C(O)C1CCN(c2ccc(F)c(F)c2)C1=O` (stereo not given) came in with a melting point of 154 to 156 °C.
The compound `CC(C)Oc1ncc(C(=O)O)cc1Cl` registered a melting point of 171 to 173 °C.
The value for `NC(=O)NCCCc1ccccc1` was 137 to 139 °C; that for `Cc1nn(CCO)c(C(F)(F)Cl)c1C(=O)O` was 124 to 126 °C; that for `C#CCN1CCCCC1C(=O)O` (stereo not given) was 177 to 179 °C.
The value for `Cc1ccc(C(=O)Nc2ccccc2)cc1N` was 151 to 153 °C; that for `NCCCc1n[nH]c(N)c1-c1nc2ccccc2s1` was 313 to 315 °C; that for `COC(=O)c1c(S)nc2ccccc2c1O` was 179 to 181 °C.
The result for `NS(=O)(=O)c1ccc(C(=O)O)c(F)c1` reads 189 to 191 °C; that for `CC(C)(C)c1ccc(/C=C/c2cc(C(=O)O)c3cc(Br)ccc3n2)cc1`, 319 to 321 °C.
The compound `CN(C)S(=O)(=O)c1cncc(C=CC(=O)O)c1` yielded a melting point of 242 to 244 °C.
On to `N#CCc1ccccc1C(=O)O`, for which the melting point lay in the range of 106 to 108 °C.
The value for `Nc1ccccc1C(=O)Nc1ccc2c(c1)OCO2` was 85 to 87 °C; that for `Fc1ccc(-c2nnc(Cl)c3ccccc23)cc1` was 186 to 188 °C; that for `CC1(C)CCc2sc(C(=O)O)cc2C1` was 138 to 140 °C.
With `Cc1nccn1-c1ncccc1N`, the melting point fell in the range of 166 to 168 °C.
The compound `Cc1c(C(=O)O)sc2nc3n(c(=O)c12)CCC3` registered a melting point of 281 to 283 °C.
With `Cc1nnc(SCCC(=O)O)[nH]1`, the melting point was 131 to 133 °C.
In turn, `CC1(C)CCC(C)(C)c2cc(C(=O)O)ccc21` came in with a melting point of 199 to 201 °C.
As to `CNCc1c(Cl)ncnc1N(C)C`, the melting point lay within 43 to 45 °C.
Consider `O=C(O)c1cnn(-c2ccc(C(F)(F)F)cn2)c1C(F)(F)F`, for which the melting point lay within 162 to 164 °C.
The value for `N#CC(N)c1cnn(-c2ccccc2)c1` (stereo not given) was 98 to 100 °C; that for `CC(Cl)C(=O)NCC(=O)Nc1ccc(F)c(F)c1F` (stereo not given) was 128 to 130 °C.
The value for `Oc1cccc(Oc2ccncn2)c1` was 102 to 104 °C.
The value for `Cc1ccc(-c2nc(N)sc2C)cc1` was 173 to 175 °C.
In the case of `O=C(CCl)Nc1cc(S(=O)(=O)N2CCOCC2)ccc1Cl`, the melting point lay within 131 to 133 °C.
The result for `O=C(O)Cn1cc(Br)ccc1=O` reads 239 to 241 °C; that for `Cc1cc(C)nc(-n2[nH]c(C(=O)O)cc2=O)n1`, 246 to 248 °C; that for `OCc1ccc(Br)cc1Cl`, 70 to 72 °C.
`NS(=O)(=O)c1ccc2c(c1)OCO2` had a melting point of 155 to 157 °C.
Compound `Cn1cncc1CO` returned a melting point of 112 to 114 °C.
In turn, `CNS(=O)(=O)c1ccc(-c2ccc(Cl)c(Cl)c2)c(C(=O)O)c1` gave a melting point of 193 to 195 °C.
The result for `Cc1cc(C(=O)C=O)ccc1F` reads 76 to 78 °C.
Take `Cc1ccc(Cl)cc1N1CC(C(=O)O)CC1=O` (stereo not given): the melting point was in the range of 129 to 131 °C.
The result for `CCN(CCC(=O)O)Cc1nc2c(C)cccc2c(=O)[nH]1` reads 184 to 186 °C.
`CN1C(=O)c2cccc(N)c2C1=O` showed a melting point of 199 to 201 °C.
For `COc1ccc(C)cc1-c1nn(CC(C)C)cc1C(=O)O`, the melting point was in the range of 181 to 183 °C.
The result for `Nc1c(F)ccc(Cl)c1C(=O)O` reads 161 to 163 °C.
The value for `Sc1nnnn1-c1ccccc1` was 145 to 147 °C; that for `O=C(O)c1ccc(C(F)(F)C(F)(F)F)cc1` was 152 to 154 °C.
The result for `CCOC=C1C(=O)N(c2cccc(Cl)c2)C(=O)c2ccccc21` reads 205 to 209 °C; that for `CCOC(=O)c1ccc(S(=O)(=O)N2CCC(C(=O)O)CC2)cc1`, 219 to 221 °C.
The compound `COc1ccc(CC(N)=NO)cc1` registered a melting point of 109 to 111 °C.
In the case of `COc1ccc(C2C(C(N)=O)CC(=O)N2C)cc1` (stereo not given), the melting point was in the range of 208 to 210 °C.
The value for `Cc1c(N=C=S)c(=O)n(-c2ccccc2)n1C` was 145 to 147 °C; that for `N#CCCCn1cc(C(=O)O)nn1` was 164 to 166 °C.
The result for `Nc1nc(CN2CCOCC2)cs1` reads 145 to 150 °C; that for `O=C(NCc1ccccc1F)c1ccc(-n2ccnc2S)cc1`, 211 to 213 °C; that for `COC(=O)c1ccc2[nH]cc(C3CCNCC3)c2c1`, 169 to 171 °C.
The value for `CCC(C#N)NC(=O)c1ccccc1` (stereo not given) was 104 to 106 °C; that for `O=C1c2ccccc2C(=O)N1C1CCC(O)CC1` (stereo not given) was 174 to 176 °C.
Consider `Cn1cc(Nc2cccc(N)c2)cn1`, for which the melting point lay in the range of 92 to 94 °C.
The value for `COc1cccc(C(=O)c2c(N)sc3c2CCC3)c1` was 127 to 129 °C; that for `O=C(O)c1noc(-c2ccccc2)n1` was 111 to 113 °C; that for `c1ccc(CNc2nccs2)cc1` was 127 to 129 °C.
In the case of `Nc1nnc(C(F)(F)F)[nH]1`, the melting point was in the range of 155 to 157 °C.
`Cc1ccc(N)cc1C(=O)N(C)C` returned a melting point of 114 to 116 °C.
The value for `CC(=O)c1cccc(OCC(=O)N(C)C)c1` was 93 to 95 °C; that for `O=C(O)C1CCCCN1S(=O)(=O)c1cccs1` (stereo not given) was 107 to 109 °C; that for `CC1(C)CCC(CC(=O)O)CC1` was 45 to 47 °C.
As to `CC1(C(=O)O)CCCCN1C(=O)c1ccccc1` (stereo not given), the melting point lay within 187 to 189 °C.
The value for `Nc1cccc(C(=O)N2CCCC(CO)C2)c1` (stereo not given) was 115 to 117 °C; that for `O=C(O)C1(c2cccc(F)c2)CCC1` was 67 to 69 °C; that for `CC(C)(C)C(=O)Nc1ccc(C(=O)CCl)cc1` was 132 to 134 °C.
The result for `COc1cc(N)ccc1S(=O)(=O)Nc1ccc(F)c(Cl)c1` reads 165 to 167 °C; that for `Nc1cc(CC2CCCC2)no1`, 67 to 69 °C; that for `COC(=O)c1cccc(-c2ncno2)c1`, 101 to 103 °C.
The result for `O=C(CCl)NCCCc1ccccc1` reads 76 to 79 °C; that for `NC(=O)CN1CCC(O)CC1`, 114 to 116 °C; that for `O=c1[nH]cnc2ccsc12`, 219 to 221 °C.
In turn, `CSc1nc(C(=O)O)cc(C2CC2)n1` showed a melting point of 135 to 137 °C.
The value for `O=C1COc2cc([N+](=O)[O-])ccc2N1` was 225 to 227 °C.
The value for `COC(=O)c1[nH]c(C)cc1N` was 128 to 130 °C; that for `CC(=O)Nc1ccc(O)c(S(=O)(=O)Cl)c1` was 164 to 166 °C.
The value for `Cc1cnn(-c2ccc(S(N)(=O)=O)cc2F)c1` was 189 to 191 °C.
For the compound `CC(=O)CC(=O)Nc1ccc(I)cc1`, the melting point is 142 to 144 °C.
The result for `O=C(O)c1cccc(N2CCCC2=O)c1` reads 195 to 208 °C; that for `Cc1cc(Oc2ccc(C(=O)O)cn2)ccc1C(C)C`, 122 to 124 °C.
The result for `Nc1ccc2ccn(Cc3ccccc3)c2c1` reads 119 to 121 °C; that for `CC1Oc2ccc(N)cc2NC1=O` (stereo not given), 198 to 200 °C; that for `COCCOc1c(Cl)cc(N)cc1Cl`, 58 to 60 °C.
The value for `N#Cc1cc(C(F)(F)F)ccc1N` was 72 to 74 °C; that for `CCC(=O)c1ccc(C(=O)O)cc1` was 178 to 180 °C; that for `CSc1nc(C)nc(C)c1C(=O)O` was 223 to 225 °C.
In turn, `Cc1nc(-c2ccncc2)nc(O)c1C` came in with a melting point of 256 to 258 °C.
The value for `CCCOc1ccc2[nH]cc(C=O)c2c1` was 139 to 141 °C; that for `O=C(O)c1ccc(Cl)cc1NS(=O)(=O)c1ccccc1` was 189 to 191 °C.
The result for `CC1(c2cccc(C(F)(F)F)c2)NC(=O)NC1=O` (stereo not given) reads 219 to 221 °C; that for `O=Cc1ccc(-c2cc(Cl)ccc2Cl)o1`, 84 to 86 °C; that for `O=S(=O)(Cl)CCNS(=O)(=O)c1ccccc1`, 96 to 98 °C.
`CCOc1ccc(OC(C)(C)C(=O)O)cc1` had a melting point of 66 to 68 °C.
The result for `Nc1cc(C(=O)Nc2ccccc2)ccc1Cl` reads 199 to 201 °C; that for `Cc1nc(N)sc1Cc1cccc(Cl)c1`, 74 to 76 °C.
For `Cn1nc(-c2ccccc2)c(C=O)c1Cl`, the melting point was 61 to 63 °C.
With `Nc1cc(S(=O)(=O)NCCCN2CCOCC2)ccc1Cl`, the melting point was below 17 °C.
The result for `CC(C)C(N)c1nnc2ccccn12` (stereo not given) reads 116 to 118 °C.
The result for `Cc1cc(-c2cccc(F)c2)nnc1Cl` reads 132 to 134 °C.
The value for `Cc1nccn1-c1ccc(F)cc1N` was 153 to 155 °C.
`CN1CC(=O)N(CC(=O)O)C1=O` gave a melting point of 139 to 141 °C.
In the case of `CCOC(=O)C(=O)Nc1ccc([N+](=O)[O-])cc1`, the melting point was in the range of 172 to 174 °C.
In the case of `NC(=O)C1CCC1`, the melting point is 151 to 153 °C.
The value for `O=C(O)C1CC1C(=O)N1CCN(c2ccccc2)CC1` (stereo not given) was 155 to 157 °C; that for `Nc1nc(-c2ccc(Cl)s2)cs1` was 98 to 100 °C.
